Consider four sequences from patent publication US8178506B2, “Oligomeric compounds and compositions for use in modulation of small non-coding RNAs” (Regulus Therapeutics Inc., priority 2003, dated 2012).

In the oligonucleotide strings, read from the 5' end, every base follows the letter of its sugar. An asterisk marks phosphorothioate; unmarked linkages are phosphodiester. Other units and linkages are bracketed, terminal groups are in braces. A string of capitals states the bases alone. e = 2'-O-(2-methoxyethyl) (MOE); [5mC] = 5-methylcytosine; d = 2'-deoxy (DNA)

The subject of data set [1] is mir-24-2 pri-miRNA. Kind of data set: mir-24-2 pri-miRNA expression in HeLa cells. As to conditions: 100 nM. In kind it is cell-based, human. The protocol:
The expression levels of mir-24-2, let-7i , and let-7d were assessed in HeLa or T-24 cells treated with various uniform 2′-MOE oligomeric compounds targeting mature miRNAs. For example, using the transfection methods previously described, HeLa cells were treated with 100 nM of the oligomeric compound ISIS Number 327945 (SEQ ID NO: 363) targeting the mir-24-2 mature miRNA. Total RNA was isolated and expression levels of the mir-24-2 pri-miRNA were analyzed by real-time quantitative RT-PCR using a primer/probe set specific for the mir-24-2 pri-miRNA molecule [forward primer=ISIS 359358 (CCCTGGGCTCTGCCT; herein incorporated as SEQ ID NO.: 908), reverse primer-ISIS 359359 ([…]; herein incorporated as SEQ ID NO.: 909), and probe=ISIS 359360 (CGTGCCTACTGAGC; herein incorporated as SEQ ID NO.: 910)].

Data set [2] concerns let-7i pri-miRNA. Description: let-7i pri-miRNA expression in HeLa cells. It is filed as cell-based, human. As to conditions: 100 nM. The method, then:
Using the transfection methods previously described, HeLa cells were treated with 100 nM of the oligomeric compound ISIS Number 327890 (SEQ ID NO: 308) targeting the let-7i mature miRNA. Total RNA was isolated and expression levels of the let-7i pri-miRNA were analyzed by real-time quantitative RT-PCR using a primer/probe set specific for the let-7i pri-miRNA molecule [forward primer-ISIS 341684 ([…]; herein incorporated as SEQ ID NO.: 777), reverse primer=ISIS 341685 ([…]; herein incorporated as SEQ ID NO.: 778), and probe=ISIS 341686 ([…]; herein incorporated as SEQ ID NO.: 779)].

Data set [3] concerns IL-12 mRNA. Kind of data set: IL-12 mRNA in LPS-activated primary murine macrophages. The conditions noted are these: LPS-stimulated primary murine macrophages. It is filed as cell-based, mouse.
Data set [4] has as its system IL-6 mRNA. Description: IL-6 mRNA in LPS-activated primary murine macrophages. In kind it is cell-based, mouse. As to conditions: IFN-gamma-stimulated and unstimulated cells, 75-600 nM. The method, then: To investigate the role of miRNAs in the immune response, oligomeric compounds of the present invention targeting miRNAs were tested for their effects upon lipopolysaccharide (LPS)-activated primary murine macrophages. Macrophages participate in the immune response, for example, in the recognition and phagocytosis of microorganisms, including bacteria. Interferon-gamma (IFN-gamma) released by helper T cells is one type of signal required for macrophage activation, and LPS can serve as an additional stimulus. LPS is a component of the gram-negative bacterial cell wall and acts as an agonist for toll-like receptor 4 (TLR4), the primary LPS receptor expressed by macrophages. The proinflammatory cytokines interleukin-12 (IL-12) and interleukin-6 (IL-6) are induced by LPS treatment of macrophages, thus the expression of the mRNAs encoding these cytokines was used to evaluate the response of macrophages to LPS following treatment with oligomeric compounds targeting miRNAs.
Macrophages were isolated as follows. Female C57B1/6 mice (Charles River Laboratories, Wilmington, Mass.) were injected intraperitoneally with 1 ml 3% thioglycollate broth (Sigma-Aldrich, St. Louis, Mo.), and peritoneal macrophage cells were isolated by peritoneal lavage 4 days later. The cells were plated in 96-well plates at 40,000 cells/well for one hour in serum-free RPMI adjusted to contain 10 mM HEPES (Invitrogen Life Technologies, Carlsbad, Calif.), allowed to adhere, then non-adherent cells were washed away and the media was replaced with RPMI containing 10 mM HEPES, 10% FBS and penicillin/streptomycin (“complete” RPMI; Invitrogen Life Technologies, Carlsbad, Calif.).
Oligomeric compounds were introduced into the cells using the non-liposomal transfection reagent FuGENE 6 Transfection Reagent (Roche Diagnostics Corp., Indianapolis, Ind.). Oligomeric compound was mixed with FuGENE 6 in 1 mL of serum-free RPMI to achieve a concentration of 10 μL FuGENE per 1000 nM oligomeric compound. The oligomeric compound/FuGENE complex was allowed to form at room temperature for 20 minutes. This mixture was diluted to the desired concentration of oligomeric compound by the addition of the appropriate volume of complete RPMI. The final ratio of FuGENE 6 to oligomeric compound was 1 μL of FuGENE 6 per 100 nM oligomeric compound. A volume of 100 μL of oligomeric compound/FuGENE/RPMI was added to each well of the 96-well plate in which the macrophages were cultured. Each oligomeric compound treatment was repeated in triplicate.
Following oligomeric compound treatment, cells were stimultated with LPS. Cells were cultured in the presence of the transfection complex for approximately 24 to 28 hours at 37° C. and 5% CO2, after which the medium containing the transfection complex was removed from the cells, and complete RPMI containing 100 ng/mL LPS (Sigma-Aldrich Corp., St. Louis, Mo.) was added to the cells for a period of approximately 24 hours. Control samples included (1) cells receiving no oligomeric compound, stimulated with LPS and (2) cells receiving neither oligomeric compound nor LPS treatment.
In another embodiment, following oligomeric compound treatment, cells were first activated by IFN-gamma, to amplify the response to LPS. Cells were cultured in the presence of the transfection complex for approximately 24 hours at 37° C. and 5% CO2, at which point the medium containing the transfection complex was removed from the cells, and complete RPMI containing 100 ng/mL recombinant mouse IFN-gamma (R&D Systems, Minneapolis, Minn.) was added to the cells. After the 4 hour treatment with INF-gamma, cells were treated with 100 ng/mL LPS for approximately 24 hours. Control samples included (1) cells receiving no oligomeric compound, stimulated with LPS and (2) cells receiving neither oligomeric compound nor LPS treatment. […]

Data set [5] has as its system TLR4. Kind of data set: TLR4 mRNA in primary murine macrophages. In kind it is cell-based, mouse. As to conditions: LPS-stimulated and LPS- and IFN-gamma-stimulated macrophages. The method, then: Following the 24 hour treatment with LPS, the cells were lysed and RNA was isolated using the RNEASY 96™ kit, as described herein. mRNA expression was quantitated by real-time PCR, performed as described herein, using primer and probe sets to amplify and quantitate TLR4, IL-12 and IL-6 mRNA expression levels. Primers and probe for TLR4, designed using GenBank Accession number NM_021297.1, were: forward primer, 5′-[…]-3′ (SEQ ID NO: 2172), reverse primer, 5′-[…]-3′ (SEQ ID NO: 2173), probe 5′-FAM-[…]-TAMRA-3′ (SEQ ID NO: 2174). Primers and probe for IL-12, designed using GenBank Accession number M86671.1, were: forward primer, 5′-[…]-3′ (SEQ ID NO: 2175), reverse primer, 5′-[…]-3′ (SEQ ID NO: 2176), probe 5′-FAM-[…]-TAMRA-3′ (SEQ ID NO: 2177). Primers and probe for IL-6, designed using GenBank Accession number X54542.1, were: forward primer, 5′-[…]-3′ (SEQ ID NO: 2178), reverse primer, 5′-[…]-3′ (SEQ ID NO: 2179), probe 5′-FAM-[…]-TAMRA-3′ (SEQ ID NO: 2180). The amount of total RNA in each sample was determined using a Ribogreen Assay (Molecular Probes, Eugene, Oreg.), and expression levels of TLR4, IL-12 and IL-6 were normalized to total RNA.
TLR4 is the primary macrophage receptor for LPS. […]

The subject of data set [6] is let-7d pri-miRNA. Description: let-7d pri-miRNA expression in T-24 cells. In kind it is cell-based, human. As to conditions: 100 nM. The protocol:
Using the transfection methods previously described, supra, T-24 cells were treated with 100 nM of the oligomeric compound ISIS Number 327926 (SEQ ID NO: 344) targeting the let-7d mature miRNA. Total RNA was isolated and expression levels of the let-7d pri-miRNA were analyzed by real-time quantitative RT-PCR using a primer/probe set specific for the let-7d pri-miRNA molecule (forward primer=ISIS 341678 (CCTAGGAAGAGGTAG TAGGTTGCA; herein incorporated as SEQ ID NO.: 771), reverse primer=ISIS 341679 ([…]; herein incorporated as SEQ ID NO.: 772), and probe=ISIS 341680 ([…]; herein incorporated as SEQ ID NO.: 773)).

Regarding “CTGTTCCTGCTGAACTGAGCCA (anti-miR; chemistry not fully specified) [ISIS 327945, uniform 2′-MOE PS; targets mir-24-2]”, the “increase in expression levels of the mir-24-2 pri-miRNA molecule” value in data set [1] is listed as “approximately 35 fold”.

Turning to “AGCACAAACTACTACCTCA (chemistry not fully specified) [ISIS 327890, uniform 2′-MOE PS; targets let-7i]”, the “increase in expression levels of the let-7i pri-miRNA molecule” value in data set [2] was “approximately 4 fold”.

As to “CCACATTGAGTTTCTTTAAG (e[5mC]*e[5mC]*eA*e[5mC]*eA*dT*dT*dG*dA*dG*dT*dT*dT*d[5mC]*dT*eT*eT*eA*eA*eG) [ISIS 229927, 5-10-5 2′-MOE gapmer PS targeting mouse TLR4 mRNA, positive control, reference compound]”, in data set [3], the “IL-12 mRNA expression” value was “dose-dependent reduction in IL-12”. In data set [4], the IL-6 expression entry was “some reduction in IL-6 expression”. The “expression of TLR4” value in data set [5] is listed as “reduced the expression of TLR4 in a dose-dependent manner”.

Regarding “ACTATGCAACCTACTACCTCT (chemistry not given here) [ISIS 327926, uniform 2′-MOE PS; targets let-7d]”, the “increase in expression levels of the let-7d pri-miRNA molecule” value in data set [6] was “approximately 1.7 fold”.
